From patent US20210395210A1, “INHIBITION OF BACTERIAL CHAPERONIN SYSTEMS” (THE TRUSTEES OF INDIANA UNIVERSITY, priority 2018, published 2021)

Experiments:
E. coli GroEL/ES [1] = molecular target: T1, E. coli GroEL/ES (Escherichia coli, UniProt P0A6F5); assay: GroEL/ES-mediated dMDH refolding assay; assay type: biochemical; details: for log(IC50) GroEL/ES-dMDH Refolding: log of IC50 (μM scale), with standard deviation
T1 construct: made in house; host or cells: GroEL in E. coli DH5α; GroES in E. coli BL21 (DE3)
T1 sequence (P0A6F5 2-548): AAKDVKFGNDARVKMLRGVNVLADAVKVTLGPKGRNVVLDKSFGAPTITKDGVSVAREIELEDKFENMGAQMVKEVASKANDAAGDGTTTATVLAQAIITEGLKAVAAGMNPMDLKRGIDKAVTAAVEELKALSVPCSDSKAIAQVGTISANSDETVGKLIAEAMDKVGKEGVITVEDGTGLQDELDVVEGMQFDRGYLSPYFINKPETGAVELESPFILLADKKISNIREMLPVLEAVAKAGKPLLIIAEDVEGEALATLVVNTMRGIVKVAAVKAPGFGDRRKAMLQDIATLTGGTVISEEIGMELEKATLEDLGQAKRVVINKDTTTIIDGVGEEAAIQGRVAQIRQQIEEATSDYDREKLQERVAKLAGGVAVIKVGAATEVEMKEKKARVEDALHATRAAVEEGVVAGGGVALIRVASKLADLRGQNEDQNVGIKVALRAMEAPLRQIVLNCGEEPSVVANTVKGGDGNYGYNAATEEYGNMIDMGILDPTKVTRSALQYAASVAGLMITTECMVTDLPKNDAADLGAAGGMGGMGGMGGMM
Protocol: Reagent preparation: For these assays, four primary reagent stocks were prepared: 1) GroEUES-dMDH or HSP60/10-dMDH binary complex stock; 2) ATP initiation stock; 3) EDTA quench stock; 4) MDH enzymatic assay stock. Denatured MDH (dMDH) was prepared by 2-fold dilution of MDH (5 mg/ml, soluble pig heart MDH from Roche, product #10127248001) with denaturant buffer (7 M guanidine-HCl, 200 mM Tris, pH 7.4, and 50 mM DTT). MDH was completely denatured by incubating at room temperature for 45 min. The binary complex solutions were prepared by slowly adding the dMDH stock to a stirring stock with GroEL (or HSP60) in folding buffer (50 mM Tris-HCl, pH 7.4, 50 mM KCl, 10 mM MgCl2, and 1 mM DTT), followed by addition of GroES (or HSP10). The binary complex stocks were prepared immediately prior to dispensing into the assay plates and had final protein concentrations of 83.3 nM GroEL (Mr 800 kDa) or HSP60 (Mr 400 kDa), 100 nM GroES or HSP10 (Mr 70 kDa), and 20 nM dMDH in folding buffer. For the ATP initiation stock, ATP solid was diluted into folding buffer to a final concentration of 2.5 mM. Quench solution contained 600 mM EDTA (pH 8.0). The MDH enzymatic assay stock consisted of 20 mM sodium mesoxalate and 2.4 mM NADH in reaction buffer (50 mM Tris-HCl, pH 7.4, 50 mM KCl, and 1 mM DTT).
Assay Protocol: First, 30 μL aliquots of the GroEL/ES-dMDH or HSP60/10-dMDH binary complex stocks were dispensed into clear, 384-well polystyrene plates. […] The chaperonin-mediated refolding cycles were initiated by addition of 20 μL of ATP stock (reagent concentrations during refolding cycle: 50 nM GroEL or HSP60, 60 nM GroES or HSP10, 12 nM dMDH, 1 mM ATP, and compounds of 100 μM to 46 nM, 3-fold dilution series). The refolding reactions were incubated at 37° C. […] Next, the assay was quenched by addition of 10 μL of the EDTA to final concentration of 100 mM. […] A340 nm measurements were recorded at 0.5 minutes (start point) and at successive time points until the amount of NADH consumed reached ˜90% (end point, generally between 20-35 minutes). The differences between the start and end point A340 values were used to calculate the % inhibition of the GroEL/ES or HSP60/10 machinery by the compounds. […] Results presented represent the averages of IC50 values obtained from at least quadriplicate (duplicate of duplicate) replicates.
(§1) After generating the compound library, we next employed a series of well-established biochemical assays to evaluate compound inhibitory effects against the GroEUES chaperonin system (See FIG. 6 and FIG. 7). We used E. coli GroEUES as the surrogate chaperonin system for refolding of the reporter enzymes malate dehydrogenase (MDH) and rhodanese (Rho). Briefly, binary complexes are formed between GroEL and denatured MDH or Rho, which are then refolded to their native states upon addition of ATP and the GroES co-chaperonin. Enzymatic activities of refolded native MDH or Rho act as coupled reporters of GroEUES refolding functions since in the presence of chaperonin inhibitors, no functional reporter enzymes are generated.

E. coli GroEL/ES [2] = molecular target: T1, E. coli GroEL/ES; assay: GroEL/ES-mediated dRho refolding assay; assay type: biochemical; details: for log(IC50) GroEL/ES-dRho Refolding: log of IC50 (μM scale), with standard deviation
Protocol: Reagent preparation: For this assay, five primary reagent stocks were prepared: 1) GroEUES-dRho binary complex stock; 2) ATP initiation stock; 3) thiocyanate enzymatic assay stock; 4) formaldehyde quench stock; 5) ferric nitrate reporter stock. Denatured rhodanese (dRho) was prepared by 3-fold dilution of rhodanese (Roche product #R1756, diluted to 10 mg/mL with H2O) with denaturant buffer (12 M Urea, 50 mM Tris-HCl, pH 7.4, and 10 mM DTT). Rhodanese was completely denatured by incubating at room temperature for 45 min. The binary complex solution was prepared by slowly adding the dRho stock to a stirring stock of concentrated GroEL in modified folding buffer (50 mM Tris-HCl, pH 7.4, 50 mM KCl, 10 mM MgCl2, 5 mM Na2S2O3, and 1 mM DTT). The solution was centrifuged at 16,000×g for 5 minutes, and the supernatant was collected and added to a solution of GroES in modified folding buffer to give final protein concentrations of 100 nM GroEL, 120 nM GroES, and 80 nM dRho. The binary complex stock was prepared immediately prior to use. For the ATP initiation stock, ATP solid was diluted into modified folding buffer to a final concentration of 2.0 mM. The thiocyanate enzymatic assay stock was prepared to contain 70 mM KH2PO4, 80 mM KCN, and 80 mM Na2S2O3 in water. The formaldehyde quench solution contained 30% formaldehyde in water. The ferric nitrate reporter stock contained 8.5% w/v Fe(NO3)3 and 11.3% v/v HNO3 in water.
Assay Protocol: First, 10 μL aliquots of the GroEL/ES-dRho complex stock were dispensed into clear, 384-well polystyrene plates. […] The chaperonin-mediated refolding cycle was initiated by addition of 10 μL of ATP stock (reagent concentrations during refolding cycle: 50 nM GroEL, 60 nM GroES, 40 nM dRho, 1 mM ATP, and compounds of 250 μM to 114 nM, 3-fold dilution series). After incubating for 45 minutes at 37° C. for the refolding cycle, 30 μL of the thiocyanate enzymatic assay stock was added and incubated for 60 min at R.T. for the refolded rhodenase enzymatic reporter reaction. The reporter reaction was quenched by adding 10 μL of the formaldehyde quench stock, and then 40 μL of the ferric nitrate reporter stock was added to quantify the amount of thiocyanate produced during the enzymatic reporter reaction, which is proportional to the amount of dRho refolded by GroEL/ES. After incubating at R.T. for 15 min, the absorbance by Fe(SCN)3 was measured at 460 nm using a Molecular Devices SpectraMax Plus384 microplate reader. A second set of baseline control plates were prepared analogously, but without GroEL/ES-dRho protein binary solution, to correct for possible interference from compound absorbance or turbidity. […] Results presented represent the averages of IC50 values obtained from at least quadriplicate (duplicate of duplicate) replicates.
as §1

[3] = read-out: Biochemical Assay IC50 GroEL/ES-dMDH refolding
[4] = read-out: Biochemical Assay IC50 GroEL/ES-dRho Refolding

For `O=C(Nc1cccc(Cl)c1)c1ccccc1O` [Compound 12, N-(3-Chlorophenyl)-2-hydroxybenzamide], the IC50 (E. coli GroEL/ES [1]) was greater than 100 µM, the “log(IC50) GroEL/ES-dMDH Refolding” value (E. coli GroEL/ES [1]) was greater than 2 and the IC50 (E. coli GroEL/ES [2]) was greater than 100 µM. For the same compound, the “log(IC50) GroEL/ES-dRho Refolding” value (E. coli GroEL/ES [2]) was greater than 2.

`Cc1cc(C(C#N)c2ccc(Cl)cc2)c(Cl)cc1NC(=O)c1cc(I)cc(I)c1O` (centres unmarked) [Closantel, closantel, reference compound] was tested, and the IC50 (E. coli GroEL/ES [1]) was 2.24 µM, the “inhibition in the GroEL/ES-mediated refolding assays (in words)” value (E. coli GroEL/ES [1]; dMDH and dRho refolding assays) was “potent GroEUES inhibitors” and the IC50 (E. coli GroEL/ES [1]; [3]) was 2.2 µM. It also gave an IC50 (E. coli GroEL/ES [2]) of 1.55 µM and an IC50 (E. coli GroEL/ES [2]; [4]) of 1.5 µM.

For `COc1c(Br)cc(Br)cc1C(=O)Nc1ccc(Sc2nc3ccccc3s2)cc1` [Compound 33, N-(4-(Benzo[d]thiazol-2-ylthio)phenyl)-3,5-dibromo-2-methoxybenzamide], the IC50 (E. coli GroEL/ES [1]) was greater than 100 µM and the IC50 (E. coli GroEL/ES [2]) was greater than 100 µM.

`COc1ccccc1C(=O)Nc1ccc(Sc2nc3ccccc3s2)c(Cl)c1` [Compound 32, N-(4-(Benzo[d]thiazol-2-ylthio)-3-chlorophenyl)-2-methoxybenzamide] was tested, and the IC50 (E. coli GroEL/ES [1]) was greater than 100 µM and the IC50 (E. coli GroEL/ES [2]) was greater than 100 µM.

For `O=C(Nc1cccc(Cl)c1)c1cc(Br)ccc1O` [Compound 11, 5-Bromo-N-(3-chlorophenyl)-2-hydroxybenzamide], the IC50 (E. coli GroEL/ES [1]) was greater than 100 µM, the “log(IC50) GroEL/ES-dMDH Refolding” value (E. coli GroEL/ES [1]) was greater than 2 and the IC50 (E. coli GroEL/ES [2]) was greater than 100 µM. The “log(IC50) GroEL/ES-dRho Refolding” value (E. coli GroEL/ES [2]) was greater than 2.

For `O=C(Nc1ccc(Sc2nc3ccccc3s2)cc1)c1ccccc1O` [Compound 8, N-(4-(Benzo[d]thiazol-2-ylthio)phenyl)-2-hydroxybenzamide], the “selectivity for E. coli GroEL/ES over human HSP60/10 (in words)” value (E. coli GroEL/ES [1]; GroEL/ES-dMDH vs HSP60/10-dMDH IC50) was “selectively inhibit E. coli GroEUES over human HSP60/10”, the “log(IC50) GroEL/ES-dMDH Refolding” value (E. coli GroEL/ES [1]) was 1.60 ± 0.26 and the IC50 (E. coli GroEL/ES [1]; [3]) was 40 µM. For the same compound, the “log(IC50) GroEL/ES-dRho Refolding” value (E. coli GroEL/ES [2]) was 1.94 ± 0.23 and the IC50 (E. coli GroEL/ES [2]; [4]) was 87 µM.

`O=C(Nc1ccccc1)c1cc(Br)cc(Br)c1` [Compound 26, 3,5-Dibromo-N-phenylbenzamide] was tested, and the IC50 (E. coli GroEL/ES [1]) was greater than 100 µM, the “log(IC50) GroEL/ES-dMDH Refolding” value (E. coli GroEL/ES [1]) was greater than 2 and the IC50 (E. coli GroEL/ES [2]) was greater than 100 µM. The “log(IC50) GroEL/ES-dRho Refolding” value (E. coli GroEL/ES [2]) was greater than 2.
